target: mAChR M1 (Homo sapiens, UniProt P11229); experiment: In vitro cellular calcium flux assay, positive allosteric modulation of mAChR M1; format: cell-based; details: BHK cells expressing mAChR M1; EC20 carbachol; Examples 76-80 and 82-89 slightly modified procedure
Description: Baby hamster kidney cells stably expressing human or rat mAChR M1 to M5 were utilised for primary and selectivity profiling activities. mAChR M2 and M4 cell lines also stably expressed the chimeric Gαqi5 G-protein.
Human mAChR M1, M3, M5 and rat M1 cells were grown in low glucose Dulbecco's Modified Eagle's Medium (DMEM) medium plus heat inactivated 10% fetal bovine serum (HI FBS) and 500 μg/ml hygromycin B^1. Human mAChR M2 and M4 cells were maintained as above with^2 the addition of 500 μg/ml G418 to the media. Cells were maintained in culture at 37° C./5% CO2 and passaged twice weekly by treatment with 0.05% Trypsin/EDTA detachment solution, centrifugation (200 g, 5 min) and re-suspension in fresh media. Following cell expansion, cells were cryopreserved at −80° C. by treatment with 0.05% Trypsin/EDTA detachment solution, centrifugation (200 g, 5 min) and re-suspension of the pellet in freezing media (90% HI FBS/10% DMSO^3) at 15E6 cells/ml^4.
Prior to assaying, cells were prepared by thawing at 37° C. in a water bath, centrifugation (200 g, 5 min) and re-suspension of the pellet in fresh media. 15000 cells per well were seeded in black, clear bottomed 384-well Greiner Bio-One plates in plating medium (DMEM/10% HI FBS) and incubated overnight at 37 C/5% CO2.
On the day of the assay, media was removed from each well and replaced with 50 μl^5 assay buffer (HBSS with 20 mM HEPES and 2.5 mM Probenecid) containing the calcium indicator, Calcium 4 (Molecular Devices). Cells were then incubated at 37° C./5% CO2 for 30 min and at room temperature.
Compound preparation was carried out by generation of 11-point, 1 in 3 serial dilution concentration response curves in 100% DMSO. Compound was then diluted 1 in 65^6 with assay buffer (HBSS with 20 mM HEPES and 2.5 mM Probenecid) prior to the addition of 10 ul^7 to the cells using a Tetra fluorometric imaging plate reader (Molecular Devices)^8. Compound driven increases in intracellular calcium flux was measured as an increase in fluorescence (494Ex, 516Em)^9.
Positive allosteric modulator pEC50 values and antagonist pIC50 values for each compound were then determined. […] The points of modification and the alternate reagents, concentrations or equipment employed in these examples were: ^1200 μg/ml hygromycin B; ^2G418 not added; ^3CELLBANKER 1; ^410E6; ^5 40 μl; ^6 1 in 99; ^7 20 μl; ^8FDSS6000 (Hamamatsu Photonics); ^9(480Ex, 540Em); ^10Spotfire (TIBCO).

Sequence of mAChR M1 (P11229 whole entry, looked up): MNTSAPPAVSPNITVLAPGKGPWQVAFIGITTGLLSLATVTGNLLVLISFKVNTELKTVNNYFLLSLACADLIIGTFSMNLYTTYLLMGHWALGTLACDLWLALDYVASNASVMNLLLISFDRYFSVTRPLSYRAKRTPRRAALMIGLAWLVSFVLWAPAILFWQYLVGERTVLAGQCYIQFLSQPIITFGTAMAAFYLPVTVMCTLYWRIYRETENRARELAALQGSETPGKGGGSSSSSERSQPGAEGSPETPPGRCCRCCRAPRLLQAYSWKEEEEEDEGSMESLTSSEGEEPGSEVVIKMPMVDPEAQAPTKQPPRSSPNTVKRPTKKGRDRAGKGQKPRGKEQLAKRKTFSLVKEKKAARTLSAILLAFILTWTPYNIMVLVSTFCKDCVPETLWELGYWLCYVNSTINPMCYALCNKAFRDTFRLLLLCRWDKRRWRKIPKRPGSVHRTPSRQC

Compound | pEC50 for positive allosteric modulation
Cc1ccnc2c(C(=O)N[C@H]3CCCC[C@@H]3O)cn(Cc3cnn(C)c3)c12 [Example 73, N-((1S,2S)-2-Hydroxycyclohexyl)-7-methyl-1-((1-methyl-1H-pyrazol-4-yl)methyl)-1H-pyrrolo[3,2-b]pyridine-3-carboxamide] | 7.9
Cc1csc(Cn2cc(C(=O)N[C@H]3CCCC[C@@H]3O)c3nccc(Cl)c32)n1 [Example 74, 7-Chloro-N-((1S,2S)-2-hydroxycyclohexyl)-1-((4-methylthiazol-2-yl)methyl)-1H-pyrrolo[3,2-b]pyridine-3-carboxamide] | 6.7
Cc1cnc(Cn2cc(C(=O)N[C@H]3CCCC[C@@H]3O)c3nccc(Cl)c32)s1 [Example 75, 7-Chloro-N-((1S,2S)-2-hydroxycyclohexyl)-1-((5-methylthiazol-2-yl)methyl)-1H-pyrrolo[3,2-b]pyridine-3-carboxamide] | 6.6
Cc1cc(Cn2cc(C(=O)N[C@H]3CCCC[C@@H]3O)c3ncccc32)ccn1 [Example 76, N-((1S,2S)-2-Hydroxycyclohexyl)-1-((2-methylpyridin-4-yl)methyl)-1H-pyrrolo[3,2-b]pyridine-3-carboxamide] | 6.4
O=C(N[C@H]1CCCC[C@@H]1O)c1cn(Cc2ccncc2)c2cccnc12 [Example 77, N-((1S,2S)-2-Hydroxycyclohexyl)-1-(pyridin-4-ylmethyl)-1H-pyrrolo[3,2-b]pyridine-3-carboxamide] | 6.3
Cc1cc(Cn2cc(C(=O)N[C@H]3CCCC[C@@H]3O)c3nccc(Cl)c32)ccn1 [Example 78, 7-Chloro-N-((1S,2S)-2-hydroxycyclohexyl)-1-((2-methylpyridin-4-yl)methyl)-1H-pyrrolo[3,2-b]pyridine-3-carboxamide] | 7.8
O=C(N[C@H]1CCCC[C@@H]1O)c1cn(Cc2ccncc2)c2c(Cl)ccnc12 [Example 79, 7-Chloro-N-((1S,2S)-2-hydroxycyclohexyl)-1-(pyridin-4-ylmethyl)-1H-pyrrolo[3,2-b]pyridine-3-carboxamide] | 7.4
Cc1ccnc(Cn2cc(C(=O)N[C@H]3CCCC[C@@H]3O)c3nccc(Cl)c32)c1 [Example 80, 7-Chloro-N-((1S,2S)-2-hydroxycyclohexyl)-1-((4-methylpyridin-2-yl)methyl)-1H-pyrrolo[3,2-b]pyridine-3-carboxamide] | 7.1
Cc1ccnc2c(C(=O)N[C@H]3CCCC[C@@H]3O)cn(Cc3ccc(Cl)cn3)c12 [Example 81, 1-((5-Chloropyridin-2-yl)methyl)-N-((1S,2S)-2-hydroxycyclohexyl)-7-methyl-1H-pyrrolo[3,2-b]pyridine-3-carboxamide] | 7.2
O=C(N[C@H]1CCOC[C@@H]1O)c1cn(Cc2ccc(F)cc2)c2c(Cl)ccnc12 [Example 88, 7-Chloro-1-(4-fluorobenzyl)-N-((3R,4S)-3-hydroxytetrahydro-2H-pyran-4-yl)-1H-pyrrolo[3,2-b]pyridine-3-carboxamide] | 6.4
O=C(N[C@@H]1CCOC[C@H]1O)c1cn(Cc2ccc(F)cc2)c2c(Cl)ccnc12 [Example 89, 7-Chloro-1-(4-fluorobenzyl)-N-((3S,4R)-3-hydroxytetrahydro-2H-pyran-4-yl)-1H-pyrrolo[3,2-b]pyridine-3-carboxamide] | 6.6
O=C(N[C@H]1CCCC[C@@H]1O)c1cn(Cc2ccc(C(F)(F)F)cc2)c2cccnc12 [Example 90, N-((1S,2S)-2-hydroxycyclohexyl)-1-(4-(trifluoromethyl)benzyl)-1H-pyrrolo[3,2-b]pyridine-3-carboxamide] | 6.6
COc1cc(Cn2cc(C(=O)N[C@H]3CCCC[C@@H]3O)c3ncccc32)ccc1F [Example 91, 1-(4-fluoro-3-methoxybenzyl)-N-((1S,2S)-2-hydroxycyclohexyl)-1H-pyrrolo[3,2-b]pyridine-3-carboxamide] | 6.3
COc1ccc(Cn2cc(C(=O)N[C@H]3CCCC[C@@H]3O)c3ncccc32)c(F)c1 [Example 92, 1-(2-fluoro-4-methoxybenzyl)-N-((1S,2S)-2-hydroxycyclohexyl)-1H-pyrrolo[3,2-b]pyridine-3-carboxamide] | 6.4
COc1ccc(Cn2cc(C(=O)N[C@H]3CCCC[C@@H]3O)c3ncccc32)cc1 [Example 93, N-((1S,2S)-2-hydroxycyclohexyl)-1-(4-methoxybenzyl)-1H-pyrrolo[3,2-b]pyridine-3-carboxamide] | 6.9
O=C(N[C@H]1CCCC[C@@H]1O)c1cn(Cc2cccc(C(F)(F)F)c2)c2cccnc12 [Example 95, N-((1S,2S)-2-hydroxycyclohexyl)-1-(3-(trifluoromethyl)benzyl)-1H-pyrrolo[3,2-b]pyridine-3-carboxamide] | 6.1
Cc1cccc(Cn2cc(C(=O)N[C@H]3CCCC[C@@H]3O)c3ncccc32)c1 [Example 96, N-((1S,2S)-2-hydroxycyclohexyl)-1-(3-methylbenzyl)-1H-pyrrolo[3,2-b]pyridine-3-carboxamide] | 6.7
Cc1ccc(Cn2cc(C(=O)N[C@H]3CCCC[C@@H]3O)c3ncccc32)c(F)c1 [Example 97, 1-(2-fluoro-4-methylbenzyl)-N-((1S,2S)-2-hydroxycyclohexyl)-1H-pyrrolo[3,2-b]pyridine-3-carboxamide] | 6.9
Cc1ccnc2c(C(=O)N[C@H]3CCCC[C@@H]3O)cn(Cc3cc(F)ccc3F)c12 [Example 98, 1-(2,5-difluorobenzyl)-N-((1S,2S)-2-hydroxycyclohexyl)-7-methyl-1H-pyrrolo[3,2-b]pyridine-3-carboxamide] | 7.0
O=C(N[C@H]1CCCC[C@@H]1O)c1cn(Cc2ccc(OC(F)(F)F)cc2)c2c(Cl)ccnc12 [Example 99, 7-chloro-N-((1S,2S)-2-hydroxycyclohexyl)-1-(4-(trifluoromethoxy)benzyl)-1H-pyrrolo[3,2-b]pyridine-3-carboxamide] | 6.7
Cc1ccnc2c(C(=O)N[C@H]3CCCC[C@@H]3O)cn(Cc3ccc(OC(F)(F)F)cc3)c12 [Example 100, N-((1S,2S)-2-hydroxycyclohexyl)-7-methyl-1-(4-(trifluoromethoxy)benzyl)-1H-pyrrolo[3,2-b]pyridine-3-carboxamide] | 6.8
Cc1ccnc2c(C(=O)N[C@H]3CCCC[C@@H]3O)cn(Cc3cc(F)cc(F)c3)c12 [Example 101, 1-(3,5-difluorobenzyl)-N-((1S,2S)-2-hydroxycyclohexyl)-7-methyl-1H-pyrrolo[3,2-b]pyridine-3-carboxamide] | 7.0
COc1cccc(Cn2cc(C(=O)N[C@H]3CCCC[C@@H]3O)c3ncccc32)c1F [Example 102, 1-(2-fluoro-3-methoxybenzyl)-N-((1S,2S)-2-hydroxycyclohexyl)-1H-pyrrolo[3,2-b]pyridine-3-carboxamide] | 6.4
COc1ccnc2c(C(=O)N[C@H]3CCCC[C@@H]3O)cn(Cc3cccc(F)c3F)c12 [Example 104, 1-(2,3-difluorobenzyl)-N-((1S,2S)-2-hydroxycyclohexyl)-7-methoxy-1H-pyrrolo[3,2-b]pyridine-3-carboxamide] | 6.3
COc1ccc(Cn2cc(C(=O)N[C@H]3CCCC[C@@H]3O)c3nccc(OC)c32)cc1 [Example 105, N-((1S,2S)-2-hydroxycyclohexyl)-7-methoxy-1-(4-methoxybenzyl)-1H-pyrrolo[3,2-b]pyridine-3-carboxamide] | 6.7
